# Experiments:
# [1] = Plasma PK of brensocatib, BID vs QD oral dosing, BALB/c mice; assay type: in vivo; settings: for half-life / AUC(0-t): both sexes, BALB/c, mouse, po
# Protocol: (§1) A dose frequency study was performed in male and female mice (C57BL/6 & BALB/c) and in male and female rats (Sprague Dawley & Wistar) investigating twice daily (BID) versus once daily (QD) brensocatib administration.
# (§2) Briefly, animals were weighed and randomized into different treatment groups. In total, three different dosing levels of brensocatib were tested in each species and strain; each QD dosing level was equivalent to 1.5-times the matching daily BID dose. For BID dosing, the second daily dose was administered 8-h post the morning dose. C57BL/6 mice were dosed either BID or QD for 7 consecutive days at 0/0, 0.5/0.75, 2/3, and 20/30 mg/kg/day (BID/QD). BALB/c mice were dosed for 7 consecutive days at 0/0, 0.2/0.3, 2/3, and 20/30 mg/kg/day (BID/QD). SD rats were dosed for 9 consecutive days at 0/0, 0.2/0.3, 2/3, and 20/30 mg/kg/day (BID/QD). Wistar rats were dosed for 7 consecutive days at 0/0, 0.2/0.3, 2/3, and 20/30 mg/kg/day (BID/QD).
# (§3) For sparse PK analysis via LC-MS/MS, plasma was collected from animals during the first 24 h of dosing at prescribed timepoints. The timepoints included 1, 3, 8, and 24 h post initial dose for QD groups, and 1, 3, 8, 9, 11, and 24 h post initial dose for BID groups. Note that the 8- and 24-h plasma samples were prior to the afternoon dose for BID groups and prior to the second day dose for all groups, respectively. See section Quantification of Plasma Brensocatib Concentrations for details.
# (§4) Blood was collected via the tail-vein technique and centrifuged to separate and collect the plasma. The resulting plasma samples were stored at −20°C or lower until LC-MS/MS analysis.
# (§5) The plasma concentration of brensocatib was quantified by liquid chromatography, tandem mass spectrometry (LC-MS/MS), a Sciex API6500 mass spectrometer (SCIEX, Framingham, MA). Two brensocatib stock solutions were prepared, one for the preparation of the 8-point standard (STD) curve spiking solutions and the other for the preparation of the quantitative control spiking solutions (QCs) at three levels. The STD curve and QCs were prepared by 2% spiking from the spiking solutions into mouse or rat plasma. The samples were extracted using a protein precipitation method, where 10 µL of sample was mixed with 100 µL of internal standard working solution (100 ng/mL ^6C13-brensocatib in methanol), vortexed for 5 s, and centrifuged at 21,130 × g at 4°C for 15 min. The supernatant was mixed with an equal volume of water and 10 μL was injected into a Phenomenex Kinetex Biphenyl column (3.0 mm × 50 mm; 2.6 μm; 65°C; 0.8 mL/min) with an elution gradient consisting of mobile phase A (10 mM ammonium formate) and mobile phase B (methanol) over 2 min from 5% to 95% B. The mass spectrometer was equipped with an atmospheric-pressure chemical ionization source operating in positive mode.
# (§6) Individual plasma concentrations were plotted and the area under the curve (AUC) was calculated using the trapezoid method. The elimination rate constant (k e ) was calculated as the negative natural log of the plasma concentration over time (Eq. 1) starting at the max concentration (C max) after the most recent dose to the last measurable plasma concentration between doses. The calculated k e was used to define the half-life (t 1/2 ) based on Eq. 2; where 0.693 is the natural log of 2 and assumes a first-order reaction. ke=−ln∆C/∆t (1) t1/2=0.693/ke (2)
# [2] = Plasma PK of brensocatib, BID vs QD oral dosing, Sprague Dawley rats; assay type: in vivo; settings: both sexes, rat; for AUC(0-t): first 24 h
# Protocol: as §1, §2, §3, §4, §5, §6
smiles,measurement,setting,value
Cn1c(=O)oc2ccc(-c3ccc(C[C@@H](C#N)NC(=O)[C@@H]4CNCCCO4)cc3)cc21 [brensocatib],half-life,"[1]; 0.2 mg/kg/day, oral BID, 0.2 mg/kg/day, evening dose, read-out: t1/2, PM dose (converted)",0.67 ± 0.04 h
same,AUC(0-t),"[1]; 0.2 mg/kg/day, oral BID, 0.2 mg/kg/day, first 24 h, read-out: AUC0–24h",124 ± 31 ng·h/mL
same,AUC(0-t),"[1]; 0.2 mg/kg/day, oral BID, 0.2 mg/kg/day, first 24 h, read-out: AUC(0–24)",0.29 ± 0.07 µM·h
same,half-life,"[1]; 0.2 mg/kg/day, oral BID, 0.2 mg/kg/day, morning dose, read-out: t1/2, AM dose (converted)",1.58 ± 0.72 h
same,AUC(0-t),"[1]; 0.3 mg/kg/day, oral QD, 0.3 mg/kg/day, first 24 h, read-out: AUC0–24h",188 ± 31 ng·h/mL
same,AUC(0-t),"[1]; 0.3 mg/kg/day, oral QD, 0.3 mg/kg/day, first 24 h, read-out: AUC(0–24)",0.45 ± 0.07 µM·h
same,half-life,"[1]; 0.3 mg/kg/day, oral QD, 0.3 mg/kg/day, read-out: t1/2, AM dose (converted)",0.97 ± 0.03 h
same,half-life,"[1]; 2 mg/kg/day, oral BID, 2 mg/kg/day, evening dose, read-out: t1/2, PM dose (converted)",1.19 ± 0.34 h
same,AUC(0-t),"[1]; 2 mg/kg/day, oral BID, 2 mg/kg/day, first 24 h, read-out: AUC0–24h",1510 ± 395 ng·h/mL
same,AUC(0-t),"[1]; 2 mg/kg/day, oral BID, 2 mg/kg/day, first 24 h, read-out: AUC(0–24)",3.59 ± 0.94 µM·h
same,half-life,"[1]; 2 mg/kg/day, oral BID, 2 mg/kg/day, morning dose, read-out: t1/2, AM dose (converted)",3.22 ± 0.35 h
same,AUC(0-t),"[1]; 3 mg/kg/day, oral QD, 3 mg/kg/day, first 24 h, read-out: AUC0–24h",2960 ± 679 ng·h/mL
same,AUC(0-t),"[1]; 3 mg/kg/day, oral QD, 3 mg/kg/day, first 24 h, read-out: AUC(0–24)",7.04 µM·h
same,half-life,"[1]; 3 mg/kg/day, oral QD, 3 mg/kg/day, read-out: t1/2, AM dose (converted)",0.83 ± 0.03 h
same,half-life,"[1]; 20 mg/kg/day, oral BID, 20 mg/kg/day, evening dose, read-out: t1/2, PM dose (converted)",1.88 ± 0.06 h
same,AUC(0-t),"[1]; 20 mg/kg/day, oral BID, 20 mg/kg/day, first 24 h, read-out: AUC0–24h",24100 ng·h/mL
same,AUC(0-t),"[1]; 20 mg/kg/day, oral BID, 20 mg/kg/day, first 24 h, read-out: AUC(0–24)",57.3 ± 11.4 µM·h
same,half-life,"[1]; 20 mg/kg/day, oral BID, 20 mg/kg/day, morning dose, read-out: t1/2, AM dose (converted)",2.47 ± 0.31 h
same,AUC(0-t),"[1]; 30 mg/kg/day, oral QD, 30 mg/kg/day, first 24 h, read-out: AUC0–24h",56300 ng·h/mL
same,AUC(0-t),"[1]; 30 mg/kg/day, oral QD, 30 mg/kg/day, first 24 h, read-out: AUC(0–24)",134 ± 41.1 µM·h
same,half-life,"[1]; 30 mg/kg/day, oral QD, 30 mg/kg/day, read-out: t1/2, AM dose (converted)",2.56 ± 0.14 h
same,AUC(0–24),"[1]; oral QD, 3 mg/kg/day, first 24 h",7.05 ± 1.61 µM·h
same,half-life,"[2]; Sprague Dawley, Wistar, oral, rats (both strains), across BID and QD regimens, sparse PK, read-out: half-life (overall) (converted)",~8 h
same,AUC(0-t),"[2]; Sprague-Dawley, SD rats, oral BID, 0.2 mg/kg/day, read-out: AUC0–24h",124 ± 81 ng·h/mL
same,AUC(0-t),"[2]; Sprague-Dawley, SD rats, oral BID, 0.2 mg/kg/day, read-out: AUC(0–24)",0.29 ± 0.19 µM·h
same,AUC(0-t),"[2]; Sprague-Dawley, SD rats, oral BID, 2 mg/kg/day, read-out: AUC0–24h",4730 ± 421 ng·h/mL
same,AUC(0-t),"[2]; Sprague-Dawley, SD rats, oral BID, 2 mg/kg/day, read-out: AUC(0–24)",11.2 ± 1 µM·h
same,AUC(0-t),"[2]; Sprague-Dawley, SD rats, oral BID, 20 mg/kg/day, read-out: AUC0–24h",72600 ng·h/mL
same,AUC(0-t),"[2]; Sprague-Dawley, SD rats, oral BID, 20 mg/kg/day, read-out: AUC(0–24)",173 ± 8.09 µM·h
same,AUC(0-t),"[2]; Sprague-Dawley, SD rats, oral QD, 0.3 mg/kg/day, read-out: AUC0–24h",269 ± 128 ng·h/mL
same,AUC(0-t),"[2]; Sprague-Dawley, SD rats, oral QD, 0.3 mg/kg/day, read-out: AUC(0–24)",0.64 ± 0.3 µM·h
same,AUC(0-t),"[2]; Sprague-Dawley, SD rats, oral QD, 3 mg/kg/day, read-out: AUC0–24h",11100 ng·h/mL
same,AUC(0-t),"[2]; Sprague-Dawley, SD rats, oral QD, 3 mg/kg/day, read-out: AUC(0–24)",26.39 ± 0.25 µM·h
same,AUC(0-t),"[2]; Sprague-Dawley, SD rats, oral QD, 30 mg/kg/day, read-out: AUC0–24h",104000 ng·h/mL
same,AUC(0-t),"[2]; Sprague-Dawley, SD rats, oral QD, 30 mg/kg/day, read-out: AUC(0–24)",248 ± 59.5 µM·h
same,half-life,"[2]; Sprague-Dawley, po, 0.2 mg/kg/day, SD rats, oral BID, 0.2 mg/kg/day, evening dose, read-out: t1/2, PM dose (converted)",0.55 ± 0.02 h
same,half-life,"[2]; Sprague-Dawley, po, 0.3 mg/kg/day, SD rats, oral QD, 0.3 mg/kg/day, read-out: t1/2, AM dose (converted)",5.36 ± 2.38 h
same,half-life,"[2]; Sprague-Dawley, po, 2 mg/kg/day, SD rats, oral BID, 2 mg/kg/day, evening dose, read-out: t1/2, PM dose (converted)",7.42 ± 1.16 h
same,half-life,"[2]; Sprague-Dawley, po, 2 mg/kg/day, SD rats, oral BID, 2 mg/kg/day, morning dose, read-out: t1/2, AM dose (converted)",13.5 ± 9.16 h
same,half-life,"[2]; Sprague-Dawley, po, 3 mg/kg/day, SD rats, oral QD, 3 mg/kg/day, read-out: t1/2, AM dose (converted)",4.46 ± 0.37 h
same,half-life,"[2]; Sprague-Dawley, po, 20 mg/kg/day, SD rats, oral BID, 20 mg/kg/day, evening dose, read-out: t1/2, PM dose (converted)",4.03 ± 0.44 h
same,half-life,"[2]; Sprague-Dawley, po, 20 mg/kg/day, SD rats, oral BID, 20 mg/kg/day, morning dose, read-out: t1/2, AM dose (converted)",14.1 ± 1.55 h
same,half-life,"[2]; Sprague-Dawley, po, 30 mg/kg/day, SD rats, oral QD, 30 mg/kg/day, read-out: t1/2, AM dose (converted)",3.88 ± 0.04 h

# Source: PMC10394516, “The pharmacokinetic profile of brensocatib and its effect on pharmacodynamic biomarkers including NE, PR3, and CatG in various rodent species” (Frontiers in Pharmacology, 2023)
